Reference: US10233422B2, “Pluripotent cell lines and methods of use thereof” (Parkinson's Institute, priority 2008, dated 2019)

System: paraquat-treated mouse brain
Assay: Ex vivo screening of anti-aggregation compounds: Thioflavin S deposits in paraquat-treated mouse brain
Conditions: 250 uM, FIG. 33D-E

Oc1ccccc1O [Catechol, catechol]
Thioflavin S deposits (which label aggregate protein): Diminished Thioflavin S deposits
